Several values for one entry are separate records, joined by “and”; a condition that tells them apart may be missing. Identical values can stand only once.
Target: Histamine H4 receptor (Homo sapiens, UniProt Q9H3N8)
Sequence (Q9H3N8 whole entry): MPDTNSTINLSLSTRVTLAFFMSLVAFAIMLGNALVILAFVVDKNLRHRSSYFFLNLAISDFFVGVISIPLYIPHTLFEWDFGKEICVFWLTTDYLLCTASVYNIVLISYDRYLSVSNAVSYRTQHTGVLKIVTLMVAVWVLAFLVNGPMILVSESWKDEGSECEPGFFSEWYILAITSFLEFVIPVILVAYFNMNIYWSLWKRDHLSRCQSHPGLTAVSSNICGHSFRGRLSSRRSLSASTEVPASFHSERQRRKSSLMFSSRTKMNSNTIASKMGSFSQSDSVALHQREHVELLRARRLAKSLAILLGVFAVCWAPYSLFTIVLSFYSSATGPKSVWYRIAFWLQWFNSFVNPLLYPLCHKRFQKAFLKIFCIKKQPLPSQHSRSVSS

SMILES: C[C@@H](N)Cc1c[nH]cn1
- Ki: 348 nM and 232 nM

— BindingDB's records for doi:10.1124/mol.59.3.434 (Smithkline Beecham Pharmaceuticals, 2001)
